Numbers after ± are expanded uncertainties.
Key:
[1] = refractive index (Na D-line) (dimensionless); settings: 101.33 kPa, Liquid, Standard Abbe refractometry
[2] = 101.33 kPa, Liquid; for mass density: Vibrating tube method

Row | Structure (SMILES) | refractive index ([1]; 298.15 K) | refractive index ([1]; 303.15 K) | refractive index ([1]; 308.15 K) | refractive index ([1]; 313.15 K) | refractive index ([1]; 318.15 K) | refractive index ([1]; 323.15 K) | refractive index ([1]; 328.15 K) | refractive index ([1]; 333.15 K) | mass density ([2]; 293.15 K) [kg/m3] | mass density ([2]; 298.15 K) [kg/m3] | viscosity ([2]; 303.15 K) [mPa·s] | mass density ([2]; 303.15 K) [kg/m3] | viscosity ([2]; 308.15 K) [mPa·s] | mass density ([2]; 308.15 K) [kg/m3] | viscosity ([2]; 313.15 K) [mPa·s] | mass density ([2]; 313.15 K) [kg/m3] | viscosity ([2]; 318.15 K) [mPa·s] | mass density ([2]; 318.15 K) [kg/m3] | viscosity ([2]; 323.15 K) [mPa·s] | mass density ([2]; 323.15 K) [kg/m3] | other results
1 | CCCCCCCCCCCCOS(=O)(=O)[O-].CCCCCCCCCCn1cc[n+](CCC#N)c1 [3-(2-cyanoethyl)-1-decylimidazolium dodecylsulfate] | 1.47447 ± 0.00068 | 1.47296 ± 0.00068 | 1.47142 ± 0.00068 | 1.46972 ± 0.00068 | 1.46813 ± 0.00068 | 1.46678 ± 0.00068 | 1.46532 ± 0.00068 | 1.46391 ± 0.00068 | 1053 ± 2.2 | 1050.4 ± 2.2 | 16145 ± 2500 | 1046.9 ± 2.1 | 10417 ± 1500 | 1043.3 ± 2.1 | 6231 ± 820 | 1041.8 ± 2.1 | 3951 ± 470 | 1038.6 ± 2.1 | 2583 ± 280 | 1036.1 ± 2.1 | viscosity ([2]; 328.15 K): 1757 ± 170 mPa·s; mass density ([2]; 328.15 K): 1034.3 ± 2.1 kg/m3; viscosity ([2]; 333.15 K): 1252 ± 110 mPa·s; mass density ([2]; 333.15 K): 1032.5 ± 2.1 kg/m3; viscosity ([2]; 338.15 K): 904 ± 72 mPa·s; mass density ([2]; 338.15 K): 1029.9 ± 2.1 kg/m3; viscosity ([2]; 343.15 K): 588 ± 40 mPa·s; mass density ([2]; 343.15 K): 1027.3 ± 2.1 kg/m3; viscosity ([2]; 348.15 K): 418 ± 25 mPa·s; mass density ([2]; 348.15 K): 1025.8 ± 2.1 kg/m3; viscosity ([2]; 353.15 K): 296 ± 15 mPa·s; mass density ([2]; 353.15 K): 1023.9 ± 2.1 kg/m3
2 | CCCCCCCCCCn1cc[n+](CCC#N)c1.O=C([O-])c1cccc(S(=O)(=O)O)c1 [3-(2-cyanoethyl)-1-decylimidazolium 3-sulfobenzoate] | 1.51306 ± 0.00071 | 1.51163 ± 0.00071 | 1.50998 ± 0.00071 | 1.50871 ± 0.00071 | 1.50706 ± 0.00071 | 1.50582 ± 0.00071 | 1.5045 ± 0.00071 | 1.50322 ± 0.00071 | 1136.6 ± 2.8 | 1133.5 ± 2.8 | 11449 ± 1700 | 1129.9 ± 2.8 | 7159 ± 960 | 1126.3 ± 2.8 | 4606 ± 570 | 1123.2 ± 2.8 | 3028 ± 340 | 1119.8 ± 2.7 | 1977 ± 200 | 1116.2 ± 2.7 | viscosity ([2]; 298.15 K): 17650 ± 2800 mPa·s; viscosity ([2]; 328.15 K): 1431 ± 130 mPa·s; mass density ([2]; 328.15 K): 1112.7 ± 2.7 kg/m3; viscosity ([2]; 333.15 K): 944 ± 76 mPa·s; mass density ([2]; 333.15 K): 1109.5 ± 2.7 kg/m3; viscosity ([2]; 338.15 K): 623 ± 44 mPa·s; mass density ([2]; 338.15 K): 1105.9 ± 2.7 kg/m3; viscosity ([2]; 343.15 K): 431 ± 26 mPa·s; mass density ([2]; 343.15 K): 1102.6 ± 2.6 kg/m3; viscosity ([2]; 348.15 K): 294 ± 15 mPa·s; mass density ([2]; 348.15 K): 1099.3 ± 2.6 kg/m3; viscosity ([2]; 353.15 K): 198 ± 8 mPa·s; mass density ([2]; 353.15 K): 1095.8 ± 2.6 kg/m3
3 | CCCCCCCCCCCCOS(=O)(=O)[O-].CCCCn1cc[n+](CCC#N)c1 [1-butyl-3-(2-cyanoethyl)-1H-imidazol-3-ium dodecyl sulfate] | 1.48791 ± 0.00059 | 1.48619 ± 0.00059 | 1.48443 ± 0.00059 | 1.48232 ± 0.00059 | 1.48009 ± 0.00059 | 1.47842 ± 0.00059 | 1.47695 ± 0.00059 | 1.47487 ± 0.00059 | 1128.9 ± 1.9 | 1123.2 ± 1.8 | 4746 ± 580 | 1119.8 ± 1.8 | 2938 ± 320 | 1116.1 ± 1.8 | 1740 ± 170 | 1112.2 ± 1.8 | 1144 ± 98 | 1108.9 ± 1.8 | 768 ± 57 | 1105 ± 1.8 | viscosity ([2]; 293.15 K): 13007 ± 2000 mPa·s; viscosity ([2]; 298.15 K): 7875 ± 1100 mPa·s; viscosity ([2]; 328.15 K): 485 ± 30 mPa·s; mass density ([2]; 328.15 K): 1101.9 ± 1.8 kg/m3; viscosity ([2]; 333.15 K): 338 ± 18 mPa·s; mass density ([2]; 333.15 K): 1097.7 ± 1.8 kg/m3; viscosity ([2]; 338.15 K): 235 ± 10 mPa·s; mass density ([2]; 338.15 K): 1093.6 ± 1.8 kg/m3; viscosity ([2]; 343.15 K): 162 ± 6 mPa·s; mass density ([2]; 343.15 K): 1089.7 ± 1.8 kg/m3; viscosity ([2]; 348.15 K): 114 ± 3 mPa·s; mass density ([2]; 348.15 K): 1086.3 ± 1.7 kg/m3; viscosity ([2]; 353.15 K): 76 ± 1 mPa·s; mass density ([2]; 353.15 K): 1082.2 ± 1.7 kg/m3
4 | CCCCn1cc[n+](CCC#N)c1.O=S(=O)([O-])c1ccccc1 [1-butyl-3-(2-cyanoethyl)-1H-imidazolium benzenesulfonate] | 1.53378 ± 0.00061 | 1.53237 ± 0.00061 | 1.53113 ± 0.00061 | 1.52975 ± 0.00061 | 1.52824 ± 0.00061 | 1.52684 ± 0.00061 | 1.52544 ± 0.00061 | 1.52403 ± 0.00061 | 1240.3 ± 2.3 | 1236.8 ± 2.3 | 1806 ± 260 | 1233.4 ± 2.3 | 1203 ± 160 | 1230.2 ± 2.3 | 792 ± 89 | 1226.3 ± 2.2 | 505 ± 48 | 1223.7 ± 2.2 | 321 ± 25 | 1220.3 ± 2.2 | viscosity ([2]; 293.15 K): 4612 ± 840 mPa·s; viscosity ([2]; 298.15 K): 2752 ± 450 mPa·s; viscosity ([2]; 328.15 K): 214 ± 13 mPa·s; mass density ([2]; 328.15 K): 1217.1 ± 2.2 kg/m3; viscosity ([2]; 333.15 K): 152 ± 7 mPa·s; mass density ([2]; 333.15 K): 1213.5 ± 2.2 kg/m3; viscosity ([2]; 338.15 K): 109 ± 4 mPa·s; mass density ([2]; 338.15 K): 1210.1 ± 2.2 kg/m3; viscosity ([2]; 343.15 K): 78 ± 2 mPa·s; mass density ([2]; 343.15 K): 1207.1 ± 2.2 kg/m3; viscosity ([2]; 348.15 K): 54 ± 1 mPa·s; mass density ([2]; 348.15 K): 1204.4 ± 2.2 kg/m3; viscosity ([2]; 353.15 K): 38 ± 1 mPa·s; mass density ([2]; 353.15 K): 1201.3 ± 2.2 kg/m3
